In patent publication US11707437B2, “Topical formulations with resiniferatoxin nanoparticles and methods” (priority 2019, dated 2023):

What was measured:
TRPV1 ion channel = TRPV1 ion channel (UniProt O35433); assay: patch clamp current recordings from HEK cells stably expressing TRPV1; assay type: cell-based; details: for reversibility of current response by washout: FIG. 3
Protocol: Y axis is current amplitude and X-axis is time indicated by a 2 min bar.

[1] = intraperitoneally in rats, over a period of 9 months; cited from earlier work
TRPV1 receptor = TRPV1 receptor (Homo sapiens, UniProt Q8NER1); details: cited from earlier work
[2] = tested on: TRPV1 positive peripheral terminals; details: local intra-dermal administration, rodents; cited from earlier work
[3] = tested on: TRPV1 expressing nerve terminals; details: intrathecal administration, STZ-induced diabetes; cited from earlier work

Chain of TRPV1 receptor (Q8NER1 whole entry): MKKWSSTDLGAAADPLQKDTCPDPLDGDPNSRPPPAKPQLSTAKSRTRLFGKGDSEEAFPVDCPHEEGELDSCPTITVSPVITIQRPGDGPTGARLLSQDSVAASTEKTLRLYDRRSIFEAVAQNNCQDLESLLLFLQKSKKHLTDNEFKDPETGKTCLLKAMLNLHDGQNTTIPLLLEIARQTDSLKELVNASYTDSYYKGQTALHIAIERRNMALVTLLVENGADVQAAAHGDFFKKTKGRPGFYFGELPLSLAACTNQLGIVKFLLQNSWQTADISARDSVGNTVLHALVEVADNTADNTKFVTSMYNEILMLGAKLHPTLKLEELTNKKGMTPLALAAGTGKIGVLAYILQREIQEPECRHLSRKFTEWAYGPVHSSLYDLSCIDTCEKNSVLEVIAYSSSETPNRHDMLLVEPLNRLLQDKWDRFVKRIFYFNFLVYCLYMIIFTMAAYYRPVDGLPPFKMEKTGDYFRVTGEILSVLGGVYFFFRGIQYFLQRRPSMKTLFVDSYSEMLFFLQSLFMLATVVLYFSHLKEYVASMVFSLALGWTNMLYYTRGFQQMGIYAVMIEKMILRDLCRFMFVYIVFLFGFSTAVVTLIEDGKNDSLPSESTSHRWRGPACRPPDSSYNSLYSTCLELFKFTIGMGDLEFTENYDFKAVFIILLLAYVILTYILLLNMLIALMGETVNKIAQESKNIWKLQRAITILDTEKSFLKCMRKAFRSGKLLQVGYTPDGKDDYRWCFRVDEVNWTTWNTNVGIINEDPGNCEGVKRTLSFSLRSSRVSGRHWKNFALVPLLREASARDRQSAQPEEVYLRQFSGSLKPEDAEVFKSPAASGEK

Structure (SMILES) | current activation (TRPV1 ion channel; 7.9 fM to 15.8 pM, after 100 nM capsaicin, rate of activation concentration dependent) | reversibility of current response by washout (TRPV1 ion channel; RTX 7.9 fM) | concentrations activating TRPV1 ion channels relative to capsaicin (TRPV1 ion channel; RTX at fM to pM concentrations, FIG. 2) | dose administered without observable side effects [1] [mg/kg] | concentrations that fully activate TRPV1 receptor (TRPV1 receptor) | pain sensitivity [2] | effect on thermal hyperalgesia [3] | reversibility of current response by washout (TRPV1 ion channel; capsaicin 100 nM)
C=C(C)[C@]12C[C@@H](C)[C@@]34O[C@](Cc5ccccc5)(O[C@@H]1[C@@H]3C=C(COC(=O)Cc1ccc(O)c(OC)c1)C[C@]1(O)C(=O)C(C)=C[C@@H]41)O2 [RTX, Resiniferatoxin] | activated currents maximally | could not be reversed by washout | five to nine orders of magnitude lower than capsaicin | ≤ 0.2 | femtomolar-picomolar range | complete loss of pain sensitivity | reversed thermal hyperalgesia | 
COc1cc(CNC(=O)CCCC/C=C/C(C)C)ccc1O [capsaicin] |  |  |  |  |  |  |  | could be reversed by washout
